Results on three compounds are retold here after paper PMC11225630 (Journal of Oral Microbiology, 2024).

Where a SMILES comes first, the peptide text is derived from it.

Assay in all cases: AMC release by intact cells, fluorescence
Holding throughout (format): cell-based
Conditions in all cases: 20 uM; 50 mM phosphate, 5 mM EDTA, 100 mM NaCl, 37 C, 3 h

The target in assay [1] is DPP4 (Porphyromonas gingivalis, UniProt B2RKU3).
Assay [2] has as its target T1, DPP11 (Porphyromonas gingivalis, UniProt B2RID1).
T1 sequence (B2RID1 22-720): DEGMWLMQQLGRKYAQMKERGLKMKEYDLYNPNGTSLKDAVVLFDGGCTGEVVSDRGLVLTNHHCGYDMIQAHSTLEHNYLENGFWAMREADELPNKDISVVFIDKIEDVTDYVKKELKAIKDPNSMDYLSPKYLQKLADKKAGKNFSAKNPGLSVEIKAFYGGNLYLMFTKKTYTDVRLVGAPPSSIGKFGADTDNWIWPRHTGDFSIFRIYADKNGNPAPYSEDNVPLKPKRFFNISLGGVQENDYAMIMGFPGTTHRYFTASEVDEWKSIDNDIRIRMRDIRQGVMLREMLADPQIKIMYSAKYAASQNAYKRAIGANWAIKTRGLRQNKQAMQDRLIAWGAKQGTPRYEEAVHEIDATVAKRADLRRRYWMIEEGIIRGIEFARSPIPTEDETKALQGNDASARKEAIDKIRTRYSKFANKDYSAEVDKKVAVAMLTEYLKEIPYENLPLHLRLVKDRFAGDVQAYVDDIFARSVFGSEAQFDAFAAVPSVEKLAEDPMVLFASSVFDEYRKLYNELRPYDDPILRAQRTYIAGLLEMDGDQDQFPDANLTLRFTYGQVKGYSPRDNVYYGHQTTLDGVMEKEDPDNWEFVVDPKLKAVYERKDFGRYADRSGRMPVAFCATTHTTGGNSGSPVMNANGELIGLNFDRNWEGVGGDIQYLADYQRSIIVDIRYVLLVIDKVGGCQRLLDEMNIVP

Assay [3] has as its target T2, DPP5 (Porphyromonas gingivalis, UniProt B2RIT0).
T2 sequence (B2RIT0 25-684): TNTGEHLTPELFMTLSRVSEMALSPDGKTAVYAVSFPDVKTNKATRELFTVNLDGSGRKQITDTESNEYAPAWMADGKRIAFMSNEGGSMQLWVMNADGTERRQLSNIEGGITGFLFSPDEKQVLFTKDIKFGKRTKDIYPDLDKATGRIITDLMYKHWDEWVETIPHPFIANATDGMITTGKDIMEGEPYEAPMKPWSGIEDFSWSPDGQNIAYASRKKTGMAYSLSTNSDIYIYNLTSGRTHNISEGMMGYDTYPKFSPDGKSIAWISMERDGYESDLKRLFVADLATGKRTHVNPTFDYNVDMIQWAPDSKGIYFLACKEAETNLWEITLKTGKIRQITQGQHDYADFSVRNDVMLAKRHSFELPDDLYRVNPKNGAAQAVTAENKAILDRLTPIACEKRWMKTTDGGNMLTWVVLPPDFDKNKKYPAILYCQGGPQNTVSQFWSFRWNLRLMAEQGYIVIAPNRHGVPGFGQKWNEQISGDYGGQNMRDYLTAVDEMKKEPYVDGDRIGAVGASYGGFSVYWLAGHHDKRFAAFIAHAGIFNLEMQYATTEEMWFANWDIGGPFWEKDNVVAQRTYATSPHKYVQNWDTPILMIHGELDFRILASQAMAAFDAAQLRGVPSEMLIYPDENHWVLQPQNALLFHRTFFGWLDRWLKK

Turning to `Cc1cc(=O)oc2cc(NC(=O)[C@@H]3CCCN3C(=O)CN)ccc12` [Gly-Pro-MCA] (HELM PEPTIDE1{G.P.[Cc1cc(=O)oc2cc(N[*:1])ccc12]}$$$$V2.0), in assay [1], the “AMC release by intact cells, fluorescence” value (“AMC release by intact cells” for short) is “Gly-Pro-MCA (substrate of DPP4)”.

For `Cc1cc(=O)oc2cc(NC(=O)[C@H](CC(=O)O)NC(=O)[C@@H](N)CC(C)C)ccc12` [Leu-Asp-MCA] (HELM PEPTIDE1{L.D.[Cc1cc(=O)oc2cc(N[*:1])ccc12]}$$$$V2.0), the “AMC release by intact cells” value in assay [2] is “Leu-Asp-MCA (substrate of DPP11)”.

With `Cc1cc(=O)oc2cc(NC(=O)[C@H](C)NC(=O)[C@@H](N)CCCCN)ccc12` [Lys-Ala-MCA] (HELM PEPTIDE1{K.A.[Cc1cc(=O)oc2cc(N[*:1])ccc12]}$$$$V2.0), the “AMC release by intact cells” value in assay [3] is given as “Lys-Ala-MCA (substrate of DPP5)”.
